Measured values: patent publication US10758466B2, “Powder-based cosmetic compositions containing pelargonic acid esters” (Novamont S.p.A., priority 2015, dated 2020)

Key:
[1] = Pigments dispersion: wet point and flow point of ester oil; format: physicochemical; conditions: for Fp: amount of ester oil needed to reach the flow point; for Fp / Wp: grams per 100 g of pigment; for Wp: amount of ester oil needed to reach the wet point
Text: Black Iron Oxide particles (CI77499, commercially available as YPC335200 from Yipin) were dispersed in each of the ester oils of the present invention and in ester oil commonly used as cosmetic ingredients. Each sample of powder particles was wetted by the dropwise addition of one ester oil and then vigorously blended using a spatula until the wet point and the flow point were reached.
The wet point is defined as the minimum volume of dispersant solution to produce a soft coherent mass; the further minimum addition of dispersant solution to produce flow or falling off of the homogeneous mass from the vertical blade of a horizontally held spatula determines the flow point.
The amounts of dispersant solution (i.e. ester oil) needed to reach the wet point (Wp) and the flow point (Fp) were recorded and reported in the table below, expressed in grams per 100 g of pigment.

[2] = UV filters dispersion: dispersibility of solid UV filter in ester oils; format: physicochemical; design: key: D=homogeneous dispersion; S=sediment deposit; conditions: 25° C.; for Filters dispersion t0 1%: 1% TiO2, storage 0 hours; for Filters dispersion t24 1%: 1% TiO2, storage 24 hours; for Filters dispersion t0 10%: 10% TiO2, storage 0 hours; for Filters dispersion t24 10%: 10% TiO2, storage 24 hours
Description: The dispersibility of a solid UV filter in different ester oils was tested using Titania (TiO2, commercially available as Titanio Biossido Anatasio from A.C.E.F.). Various ratios of solute/solvent (1% and 10% TiO2) were prepared under stiffing at 70° C. for 30 minutes. The dispersions were then observed after a storage period of 0 hours (t0) and 24 hours (t24) at ambient temperature (25° C.) to check for the formation of any sediment deposit. Results for each ester are shown in the table below (D=homogeneous dispersion; S=sediment deposit).

Fp [1] | Wp [1] | Filters dispersion t0 1% [2] | Filters dispersion t24 1% [2] | Filters dispersion t0 10% [2] | Filters dispersion t24 10% [2] | less solvent required on the final composition ([1]; from Fp close to Wp, compared with commonly used ester oils) | SMILES
145.00 g | 50.00 g | D | S | D | S | – | CC(C)CCCCCCOC(=O)CCCCCC(C)C [Isononyl Isononanoate, reference compound]
100.00 g | 60.00 g | D | D | D | S/D | about 30% | CCCCCCCCC(=O)OCC(COC(=O)CCCCCCCC)OC(=O)CCCCCCCC [Glycerol tripelargonate]
132.00 g | 62.00 g | D | D | D | D | – | CCCCCCCCC(=O)OCC(COC(=O)CCCCCCCC)(COC(=O)CCCCCCCC)COC(=O)CCCCCCCC [Pentaerythritol tetrapelargonate]
166.00 g | 61.00 g | D | S/D | D | S/D | – | CCCCCCCCC(=O)OCC(C)(C)COC(=O)CCCCCCCC [Neopentyl glycol dipelargonate]
